Reference: patent publication US8426420B2, “Heterocyclic pyrazole-carboxamidesas P2Y12 antagonists” (Sanofi, priority 2007, dated 2013)

What was measured:
[1] = biological target: human P2Y12 receptor (Homo sapiens, UniProt Q9H244); assay: Human P2Y12 recombinant cell membrane binding assay with 33P 2MeS-ADP; details: competition against 33P 2MeS-ADP, membranes of CHO cells with recombinant human P2Y12 receptor
In short: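 Competition binding against radiolabeled 2MeS-ADP (1.61 nM as added) on membranes from recombinant human P2Y12 CHO cells, 20 min RT after 15 min compound preincubation, pH 7.4. Filtration then scintillation counting; compounds tested in triplicate from 10 μM final, five-fold dilutions, curve fit with plate-defined min/max.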

[2] = tested on: human platelet rich plasma; assay: Inhibition of human platelet aggregation, 96-well assay; format: cell-based; details: Homo sapiens, Platelet, 20 min
In short: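 ADP-induced aggregation read as 650 nm absorbance every minute for 20 min at 37 °C, with shaking between reads. PRP (~3×E8 platelets/ml, diluted with PPP, ACD-A blood from healthy volunteers) was exposed to compound for 5 min before adding a 40 μM ADP stock (15 μl into 150 μl).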

[3] = tested on: human platelet rich plasma; assay: Inhibition of human platelet aggregation, "Born"-method using single cuvettes; format: cell-based; details: 0.1 h, ADP-induced aggregation, 6 minutes
Protocol: Inhibition of Human Platelet Aggregation
Alternatively to a binding assay which measures a compound's ability to bind to the P2Y12 receptor, the effect on cellular function was also determined. This ability of the compound was evaluated in two platelet aggregation assays: in 96-well plates and with the “Born”-method using single cuvettes.
Whole blood was collected from healthy volunteers using 20 ml syringes containing 2 ml of buffered Citrate. The anticoagulated whole blood was transferred into 15 ml polypropylene conical tubes (10 ml per tube). The tubes were centrifuged for 15 minutes at 340×g at RT without using the centrifuge brake. This procedure leads to a pellet of cellular components and a supernatant of platelet rich plasma (PRP). The PRP layer was collected from each tube and pooled for each donor. To avoid carry over of cellular components following centrifugation, approximately 5 ml of PRP was left in the tube. The platelet concentration was determined using a Coulter Counter.
The 15 ml tubes containing the pellet of cellular components were centrifuged again for 10 minutes at 1940×g. This pelleted out most particulate blood constituents remaining, leaving a layer of Platelet Poor Plasma (PPP). The PPP was collected for each donor. The PRP layer, previously set aside, was diluted with PPP to a final concentration of approximately 3×E8 platelets/ml with the PPP.
The human platelet aggregation assay is performed in single use cuvettes using the platelet aggregation profiler (PAP-4 or -8, Bio/Data corporation).
In the assay cuvette 4 μl of test compound at 100× final concentration in DMSO is mixed with 392 μl fresh PRP and incubated for 2 minutes at 37° C. with 1.200 rpm stirring. Following that incubation period, 4 μl of 250 μM ADP is added to the reaction mix. This addition of ADP is sufficient to induce aggregation in the absence of an inhibitor. After that aggregation is measured over 6 minutes at 37° C. with 1.200 rpm stirring. Results of the assay are expressed as % inhibition, and are calculated using maximum aggregation (Tmax) or area under curve (AUC) of the absorbance over 6 minutes.
The IC50 data of the above described platelet aggregation assay using human platelet rich plasma for exemplary compounds of the present invention are shown in table 3.

Sequence of human P2Y12 receptor (Q9H244 whole entry): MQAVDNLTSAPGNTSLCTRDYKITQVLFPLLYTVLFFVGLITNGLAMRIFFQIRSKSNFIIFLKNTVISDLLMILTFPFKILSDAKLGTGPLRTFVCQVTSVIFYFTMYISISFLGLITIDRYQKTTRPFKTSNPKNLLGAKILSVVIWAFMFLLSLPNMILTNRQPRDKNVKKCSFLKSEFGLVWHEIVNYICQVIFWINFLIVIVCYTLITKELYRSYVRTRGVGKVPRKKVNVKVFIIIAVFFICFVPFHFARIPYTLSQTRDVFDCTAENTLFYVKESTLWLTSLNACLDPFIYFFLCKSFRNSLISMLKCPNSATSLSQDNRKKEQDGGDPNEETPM

For `CCCCOC(=O)N1CCN(C(=O)[C@H](CCC(=O)O)NC(=O)c2cc(OCC(=O)N3CCC[C@H]3C(=O)NCC3CC3)n(-c3ccccc3)n2)CC1` [Example 120, 4-[(S)-4-Carboxy-2-({5-[2-((S)-2-cyclopropylmethylcarbamoyl-pyrrolidin-1-yl)-2-oxo-ethoxy]-1-phenyl-1H-pyrazole-3-carbonyl}-amino)-butyryl]-piperazine-1-carboxylic acid butyl ester], the IC50 [1] was 3 nM, the IC50 [2] was 10 nM and the IC50 [3] was 21 nM.
For `CCCNC(=O)[C@@H]1CCCN1C(=O)COc1cc(C(=O)N[C@@H](CCC(=O)O)C(=O)N2CCN(C(=O)OCC)CC2)nn1-c1ccccc1` [Example 9, 4-{(S)-4-Carboxy-2-[(5-{2-[(S)-2-propylcarbamoyl-pyrrolidin-1-yl]-2-oxo-ethoxy}-1-phenyl-1H-pyrazole-3-carbonyl)-amino]-butyryl}-piperazine-1-carboxylic acid ethyl ester], the IC50 [1] was 172 nM, the IC50 [2] was 60 nM and the IC50 [3] was 91 nM.
`CCOC(=O)N1CCN(C(=O)[C@H](CCC(=O)O)NC(=O)c2cc(OCC(=O)N3CCC[C@H]3C(=O)NC3CC3)n(-c3ccccc3)n2)CC1` [Example 1, 4-[(S)-4-Carboxy-2-({5-[2-((S)-2-cyclopropylcarbamoyl-pyrrolidin-1-yl)-2-oxo-ethoxy]-1-phenyl-1H-pyrazole-3-carbonyl}-amino)-butyryl]-piperazine-1-carboxylic acid ethyl ester] showed an IC50 [1] of 270 nM, an IC50 [2] of 10 nM and an IC50 [3] of 210 nM.
`CCCCOC(=O)N1CCN(C(=O)[C@H](CCC(=O)O)NC(=O)c2cc(OCC(=O)N3CCC[C@H]3C(=O)NCC(F)(F)F)n(-c3ccccc3)n2)CC1` [Example 123, 4-{(S)-4-Carboxy-2-[(5-{2-[(S)-2-(2,2,2-trifluoro-ethylcarbamoyl)-pyrrolidin-1-yl]-2-oxo-ethoxy}-1-phenyl-1H-pyrazole-3-carbonyl)-amino]-butyryl}-piperazine-1-carboxylic acid butyl ester] was tested, and the IC50 [1] was 5 nM, the IC50 [2] was 30 nM and the IC50 [3] was 2.6 nM.
In the case of `CCCCOC(=O)N1CCN(C(=O)[C@@H](NC(=O)c2cc(OCC(=O)N3CCC[C@H]3C(=O)NC3CCC3)n(-c3ccccc3)n2)C2CC2)CC1` [Example 230, 4-[(S)-2-({5-[2-((S)-2-Cyclobutylcarbamoyl-pyrrolidin-1-yl)-2-oxo-ethoxy]-1-phenyl-1H-pyrazole-3-carbonyl}-amino)-2-cyclopropyl-acetyl]-piperazine-1-carboxylic acid butyl ester], the IC50 [1] is reported as 14 nM, the IC50 [2] is reported as 210 nM and the IC50 [3] is reported as 80 nM.
`CCCCOC(=O)N1CCN(C(=O)[C@H](CCC(=O)O)NC(=O)c2cc(OCC(=O)N3CCC[C@H]3C(=O)NCCF)n(-c3ccccc3)n2)CC1` [Example 122, 4-{(S)-4-Carboxy-2-[(5-{2-[(S)-2-(2-fluoro-ethylcarbamoyl)-pyrrolidin-1-yl]-2-oxo-ethoxy}-1-phenyl-1H-pyrazole-3-carbonyl)-amino]-butyryl}-piperazine-1-carboxylic acid butyl ester] gave an IC50 [1] of 12 nM, an IC50 [2] of 40 nM and an IC50 [3] of 81 nM.
With `CCOC(=O)N1CCN(C(=O)[C@H](CCC(=O)O)NC(=O)c2cc(O[C@H](C)C(=O)N3CCC[C@H]3C(=O)NC3CC3)n(-c3ccccc3)n2)CC1` [Example 61, 4-[(S)-4-Carboxy-2-({5-[(R)-2-((S)-2-cyclopropylcarbamoyl-pyrrolidin-1-yl)-1-methyl-2-oxo-ethoxy]-1-phenyl-1H-pyrazole-3-carbonyl}-amino)-butyryl]-piperazine-1-carboxylic acid ethyl ester] the IC50 [1] was 93 nM, the IC50 [2] was 50 nM and the IC50 [3] was 180 nM.
In the case of `CCCCOC(=O)N1CCN(C(=O)[C@H](CCC(=O)O)NC(=O)c2cc(OCC(=O)N3CCC[C@H]3C(=O)NCC(F)F)n(-c3ccccc3)n2)CC1` [Example 121, 4-{(S)-4-Carboxy-2-[(5-{2-[(S)-2-(2,2-difluoro-ethylcarbamoyl)-pyrrolidin-1-yl]-2-oxo-ethoxy}-1-phenyl-1H-pyrazole-3-carbonyl)-amino]-butyryl}-piperazine-1-carboxylic acid butyl ester], the IC50 [1] is reported as 10 nM, the IC50 [2] is reported as 30 nM and the IC50 [3] is reported as 5.8 nM.
For `CCCCOC(=O)N1CCN(C(=O)[C@H](CCOC)NC(=O)c2cc(OCC(=O)N3CCC[C@H]3C(=O)NC3CCC3)n(-c3ccccc3)n2)CC1` [Example 231, 4-[(S)-2-({5-[2-((S)-2-Cyclobutylcarbamoyl-pyrrolidin-1-yl)-2-oxo-ethoxy]-1-phenyl-1H-pyrazole-3-carbonyl}-amino)-4-methoxy-butyryl]-piperazine-1-carboxylic acid butyl ester], the IC50 [1] was 19 nM, the IC50 [2] was 70 nM and the IC50 [3] was 30 nM.
In the case of `CCOC(=O)N1CCN(C(=O)[C@H](CC(=O)O)NC(=O)c2cc(OCC(=O)N3CCC[C@H]3C(=O)NCC3CC3)n(-c3ccccc3)n2)CC1` [Example 55, 4-{(S)-3-Carboxy-2-[(5-{2-[(S)-2-(cyclopropylmethyl-carbamoyl)-pyrrolidin-1-yl]-2-oxo-ethoxy}-1-phenyl-1H-pyrazole-3-carbonyl)-amino]-propionyl}-piperazine-1-carboxylic acid ethyl ester], the IC50 [1] is reported as 70 nM, the IC50 [2] is reported as 20 nM and the IC50 [3] is reported as 60 nM.
`CCCCOC(=O)N1CCN(C(=O)[C@H](CC)NC(=O)c2cc(OCC(=O)N3CCC[C@H]3C(=O)NC3CCC3)n(-c3ccccc3)n2)CC1` [Example 233, 4-[(S)-2-({5-[2-((S)-2-Cyclobutylcarbamoyl-pyrrolidin-1-yl)-2-oxo-ethoxy]-1-phenyl-1H-pyrazole-3-carbonyl}-amino)-butyryl]-piperazine-1-carboxylic acid butyl ester] showed an IC50 [1] of 21 nM, an IC50 [2] of 200 nM and an IC50 [3] of 60 nM.
`CCCCOC(=O)N1CCN(C(=O)[C@H](CCC(=O)O)NC(=O)c2cc(OCC(=O)N3CCC[C@H]3C(=O)NC3CC3)n(-c3ccccc3)n2)CC1` [Example 118, 4-[(S)-4-Carboxy-2-({5-[2-((S)-2-cyclopropylcarbamoyl-pyrrolidin-1-yl)-2-oxo-ethoxy]-1-phenyl-1H-pyrazole-3-carbonyl}-amino)-butyryl]-piperazine-1-carboxylic acid butyl ester] showed an IC50 [1] of 9 nM, an IC50 [2] of 20 nM and an IC50 [3] of 25 nM.
For `CCCCOC(=O)N1CCN(C(=O)CNC(=O)c2cc(OCC(=O)N3CCC[C@H]3C(=O)NC3CCC3)n(-c3ccccc3)n2)CC1` [Example 182, 4-[2-({5-[2-((S)-2-Cyclobutylcarbamoyl-pyrrolidin-1-yl)-2-oxo-ethoxy]-1-phenyl-1H-pyrazole-3-carbonyl}-amino)-acetyl]-piperazine-1-carboxylic acid butyl ester], the IC50 [1] was 20 nM, the IC50 [2] was 30 nM and the IC50 [3] was 46 nM.
`CCOC(=O)N1CCN(C(=O)[C@H](CCC(=O)O)NC(=O)c2cc(OCC(=O)N3CCC[C@H]3C(=O)NCC3CCC3)n(-c3ccccc3)n2)CC1` [Example 20, 4-{(S)-4-Carboxy-2-[(5-{2-[(S)-2-(cyclobutylmethyl-carbamoyl)-pyrrolidin-1-yl]-2-oxo-ethoxy}-1-phenyl-1H-pyrazole-3-carbonyl)-amino]-butyryl}-piperazine-1-carboxylic acid ethyl ester] gave an IC50 [1] of 50 nM, an IC50 [2] of 100 nM and an IC50 [3] of 72 nM.
In the case of `CCOC(=O)N1CCN(C(=O)[C@H](CCC(=O)O)NC(=O)c2cc(OCC(=O)N3CCC[C@H]3C(=O)NC(C)(C)C)n(-c3ccccc3)n2)CC1` [Example 12, 4-{(S)-4-Carboxy-2-[(5-{2-[(S)-2-tert-butylcarbamoyl-pyrrolidin-1-yl]-2-oxo-ethoxy}-1-phenyl-1H-pyrazole-3-carbonyl)-amino]-butyryl}-piperazine-1-carboxylic acid ethyl ester], the IC50 [1] is reported as 107 nM, the IC50 [2] is reported as 20 nM and the IC50 [3] is reported as 70 nM.
In the case of `CCOC(=O)N1CCN(C(=O)[C@H](CCC(=O)O)NC(=O)c2cc(O[C@H](C)C(=O)N3CCC[C@H]3C(=O)NCC(F)(F)F)n(-c3ccccc3)n2)CC1` [Example 65, 4-[(S)-4-Carboxy-2-({5-[(R)-2-((S)-2-(2,2,2-trifluoroethylcarbamoyl)-pyrrolidin-1-yl)-1-methyl-2-oxo-ethoxy]-1-phenyl-1H-pyrazole-3-carbonyl}-amino)-butyryl]-piperazine-1-carboxylic acid ethyl ester], the IC50 [1] is reported as 55 nM and the IC50 [3] is reported as 120 nM.
